Experimental data from US12514862B2, “Testosterone containing pharmaceutical composition” (Diurnal Limited, priority 2020, dated 2026).

Columns and labels:
[1] = DITEST-001 single dose cross-over study: serum total testosterone pharmacokinetics; assay type: in vivo, human; details: DITEST both doses fed and 200 mg fasted; testosterone undecanoate fed; hypogonadal men
Method: (§1) The study was conducted in male participants from 18 to 80 years of age requiring testosterone replacement therapy for primary or secondary hypogonadism. The study was a randomized, active control, single dose, 2-way cross-over study in 2 cohorts. In each cohort participants who met the entry criteria at screening and baseline were randomized to one of 2 sequences:
(§2) Cohort 1: single dose of 120 mg (3×40 mg) DITEST followed by a single dose of 80 mg (2×40 mg) testosterone undecanoate or a single dose of 80 mg (2×40 mg) testosterone undecanoate followed by a single dose of 120 mg (3×40 mg) DITEST. The 2 treatments were separated by a minimum of a 7-day washout period, with both treatments given in the fed state.
(§3) Cohort 2: single dose of 200 mg (5×40 mg) DITEST (fed) followed by a single dose of 200 mg DITEST (fasted) or a single dose of 200 mg DITEST (fasted) followed by a single dose of 200 mg (5×40 mg) DITEST (fed). The 2 treatments were separated by a minimum of a 7-day washout period.
(§4) Twelve participants were to be recruited into each cohort (note: participants from Cohort 1 could be entered into Cohort 2 after a washout period of at least 3 months between cohorts). Participants were not recruited into Cohort 2 until the results of participants treated in Cohort 1 had been evaluated (this review determined if the intended dose for Cohort 2 needed to be adjusted). […]

[2] = DITEST-001 study: serum testosterone undecanoate and aqueous/lipid fractions of serum; assay type: in vivo, human
Description: There is an unmet need for a native oral testosterone therapy for men with androgen (testosterone) deficiency. Current therapy for most hypogonadal patients in Europe and the United States of America (USA) is with either intramuscular injections or gels. These therapies have the disadvantages of pain with injections, skin reactions, and potential spread to partners with gels. At the time this study was designed, there was only one oral formulation of testosterone undecanoate on the market in the UK, but at that time this was not approved in the USA. DITEST is a novel formulation of native testosterone. […] Testosterone undecanoate is considered mainly absorbed through intestinal lymphatics, along with dietary lipids, whilst DITEST was formulated to permit absorption without the requirement for dietary lipids. To examine the proportions absorbed through lymphatics, the aqueous and lipid fractions of serum were separated for the measurement of serum testosterone. Since this was a first-in-human study, participants were closely monitored as inpatients during dosing. […]
as §4
(§5) • Testosterone serum concentrations after administration of a single dose of 120 mg or 200 mg DITEST and 80 mg testosterone undecanoate in the fed state, as measured by the primary PK parameters of maximum serum concentration (Cmax) and the area under the curve from 0 to 10 hours (AUC0-10). Secondary Endpoints • Testosterone serum concentrations after administration of a single 200 mg dose of DITEST in the fed and fasted states, as measured by the primary PK parameters of Cmax and AUC0-10. • AEs observed throughout the study. • Changes during the study in vital signs, ECG and safety laboratory data. […]

[3] = DITEST-001 study: safety (TEAEs, SAEs, ECG, vital signs); assay type: in vivo, human
Method: as §1, §2, §3
Twelve participants were to be recruited into each cohort (note: participants from Cohort 1 could be entered into Cohort 2 after a washout period of at least 3 months between cohorts). Participants were not recruited into Cohort 2 until the results of participants treated in Cohort 1 had been evaluated (this review determined if the intended dose for Cohort 2 needed to be adjusted). No other testosterone treatments were allowed for the duration of each cohort (including the washout periods) (note: participants who entered Cohort 1 were able to revert to their usual testosterone treatment, if applicable, on completion of this cohort and prior to screening for Cohort 2, if applicable). Each participant was required to attend the study site for a minimum of either 4 or 5 visits per cohort: a screening assessment, an evaluation of baseline testosterone levels after the washout period from the participant's current medication (only for participants currently on testosterone replacement therapy), both dosing days, and a follow-up visit at the end of the study. On each dosing day, participants were to remain in the study site and PK blood and saliva samples were taken at −0.5, −0.25 (Cohort 1 only), 0, 0.5, 1, 1.5, 2, 2.5, 3, 3.5, 4, 4.5, 5, 5.5, 6, 7, 8, and 10 hours. Further PK blood and saliva samples could be taken at up to 2 additional timepoints per period if deemed necessary based on emerging data. […] If necessary, for practical reasons, participants could stay overnight at the study site or at a nearby hotel the night before and/or the night after the dosing days.
as §5, with “data. Exploratory Endpoints: • To assess the levels of testosterone and DHT in serum. • To assess the levels of testosterone and testosterone undecanoate in the lipid and aqueous fractions of blood (testosterone undecanoate only measured in participants in the testosterone undecanoate arm). • To assess the levels of intact testosterone undecanoate in serum for participants who received testosterone undecanoate. • To compare testosterone concentrations in venous and capillary blood samples collected using the Mitra microsampling device with serum concentrations. • To compare the concentrations of testosterone in saliva with serum concentrations. • To evaluate the concentrations of androstenedione in saliva Statistical Methods” for “data.”

[4] = cited from earlier work

Structure (SMILES) | Serum testosterone levels following dosing [1] | Lipid fraction of serum testosterone undecanoate as part of total serum measurement of testosterone undecanoate ([2]; after 80 mg testosterone undecanoate) | Serum testosterone undecanoate levels relative to the testosterone levels ([2]; after dosing with 80 mg testosterone undecanoate) | Lipid fraction of testosterone relative to the serum concentration ([2]; single oral dose) | QT prolongation, reported as related to study intervention ([3]; Cohort 1: testosterone undecanoate 80 mg and DITEST 120 mg) | Total number of TEAEs reported ([3]; DITEST 120 mg fed, 200 mg fed and 200 mg fasted, testosterone undecanoate 80 mg fed) | Mean change in diastolic blood pressure ([3]; single doses) | Mean change in heart rate ([3]; single doses) | Mean change in systolic blood pressure ([3]; single doses) | SAEs or severe AEs ([3]; single doses) | Non-aqueous Solubility, Alcohol ([4]; (wt/vol) at 20° C.) | Non-aqueous Solubility, Chloroform ([4]; (wt/vol) at 20° C.) | Non-aqueous Solubility, Dehydrated alcohol ([4]; (wt/vol) at 20° C.) | Non-aqueous Solubility, Dioxane ([4]; (wt/vol) at 20° C.) | Non-aqueous Solubility, Ether ([4]; (wt/vol) at 20° C.) | Non-aqueous Solubility, Ethyl oleate ([4]; (wt/vol) at 20° C.) | Non-aqueous Solubility, Vegetable oils ([4]; (wt/vol) at 20° C.) | Aqueous Solubility ([4]; at 20° C. in water)
CCCCCCCCCCC(=O)O[C@H]1CC[C@H]2[C@@H]3CCC4=CC(=O)CC[C@]4(C)[C@H]3CC[C@]12C [Testosterone Undecanoate, testosterone undecanoate] | within the physiological range | over half | 10 fold | approximately 1/10 | One participant had QT prolongation | 8 | 1.5 mmHg | 8.5 bpm | 12.8 mmHg | One SAE | – | – | – | – | – | – | – | –
C[C@]12CC[C@H]3[C@@H](CCC4=CC(=O)CC[C@@]43C)[C@@H]1CC[C@@H]2O [Testosterone, (8R,9S,10R,13S,14S,17S)-17-hydroxy-10,13-dimethyl-1,2,6,7,8,9,11,12,14,15,16,17-dodecahydrocyclopent a[a]phenanthren-3-one] | – | – | – | – | – | – | – | – | – | – | 1 in 5 parts | 1 in 2 parts | 1 in 6 parts | soluble | 1 in 100 parts | slightly soluble | soluble | <1 mg/mL (insoluble) at 20 °C in water
